Results as given in patent US8741614B2, “Crystal structure of isoglutaminyl cyclase” (Probiodrug AG, priority 2010, dated 2014).

Key:
[1] = biological target: human QC (Homo sapiens, UniProt Q16769); experiment: inhibition of human QC in vitro; type: biochemical
[2] = biological target: mouse QC (Mus musculus, UniProt Q9CYK2); experiment: inhibition of mouse QC in vitro; type: biochemical
[3] = solubility in water; type: physicochemical

Chain of human QC (Q16769 29-361): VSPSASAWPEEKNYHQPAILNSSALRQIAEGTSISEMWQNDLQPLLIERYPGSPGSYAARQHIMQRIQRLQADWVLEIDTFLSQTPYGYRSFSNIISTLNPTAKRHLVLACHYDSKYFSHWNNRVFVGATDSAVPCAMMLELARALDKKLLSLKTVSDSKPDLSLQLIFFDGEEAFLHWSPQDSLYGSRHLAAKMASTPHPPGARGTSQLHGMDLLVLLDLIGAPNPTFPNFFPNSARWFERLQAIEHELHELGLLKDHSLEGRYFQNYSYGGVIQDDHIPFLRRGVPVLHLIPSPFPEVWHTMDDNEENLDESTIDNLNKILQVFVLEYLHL
Chain of mouse QC (Q9CYK2 36-362): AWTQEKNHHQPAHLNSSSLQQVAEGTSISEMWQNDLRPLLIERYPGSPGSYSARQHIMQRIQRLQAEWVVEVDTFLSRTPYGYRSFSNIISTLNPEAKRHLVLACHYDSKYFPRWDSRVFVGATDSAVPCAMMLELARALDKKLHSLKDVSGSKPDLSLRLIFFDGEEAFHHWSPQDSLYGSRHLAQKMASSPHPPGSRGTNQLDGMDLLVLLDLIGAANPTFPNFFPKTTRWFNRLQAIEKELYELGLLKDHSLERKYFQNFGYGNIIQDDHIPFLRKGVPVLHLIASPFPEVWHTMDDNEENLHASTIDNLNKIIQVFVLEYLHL

COc1ccc(NC(=S)NCCCn2ccnc2)cc1OC [Inhibitor A, 1-(3-(1H-Imidazol-1-yl)propyl)-3-(3,4-dimethoxyphenyl)thiourea]
inhibition of human QC [1]: inhibits | inhibition of mouse QC [2]: inhibits | solubility in water [3]: soluble in water
